Results as given in ChEMBL document CHEMBL2177022, “Novel acidic 11β-hydroxysteroid dehydrogenase type 1 (11β-HSD1) inhibitor with reduced acyl glucuronide liability: the discovery of 4-[4-(2-adamantylcarbamoyl)-5-tert-butyl-pyrazol-1-yl]benzoic acid (AZD8329)” (J Med Chem, 2012).
pIC50: −log10 of the molar value. The source made the active and inactive calls. No cut-off for these calls is given here.

Tests used:
Rattus norvegicus [1] = assay: Inhibition of 11betaHSD1 in lean Han Wistar rat adipose tissue assessed as reduction in assessed as [3H]cortisone to [3H]cortisol conversion at 10 mg/kg, po measured 3 hrs post dose; format: functional, organism-based; set-up: dose 10 mg/kg
Rattus norvegicus [2] = assay: Inhibition of 11betaHSD1 in lean Han Wistar rat liver assessed as reduction in assessed as [3H]cortisone to [3H]cortisol conversion at 3 mg/kg, po measured 3 hrs post dose; format: functional
[3] = molecular target: T1, 11-beta-hydroxysteroid dehydrogenase 1 (Homo sapiens, UniProt P28845); assay: Inhibition of 11betaHSD1 in human adipocytes assessed as cortisone to cortisol conversion by scintillation counting method; format: cell-based
T1 sequence (P28845 whole entry): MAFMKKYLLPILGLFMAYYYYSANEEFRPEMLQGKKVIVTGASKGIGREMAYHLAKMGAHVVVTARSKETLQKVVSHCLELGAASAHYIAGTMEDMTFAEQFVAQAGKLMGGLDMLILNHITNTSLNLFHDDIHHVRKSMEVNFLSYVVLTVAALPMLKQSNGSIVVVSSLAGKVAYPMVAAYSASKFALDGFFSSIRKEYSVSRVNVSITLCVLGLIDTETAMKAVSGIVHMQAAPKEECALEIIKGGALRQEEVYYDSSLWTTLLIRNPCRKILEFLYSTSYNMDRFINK

[4] = Inhibition of N-terminal 6-His tagged full length cynomolgus monkey 11betaHSD1 incubated for 25 mins by HTRF assay; set-up: species or system Macaca fascicularis
[5] = Inhibition of N-terminal 6-His tagged full length dog 11betaHSD1 incubated for 25 mins by HTRF assay; set-up: species or system Canis lupus familiaris
[6] = molecular target: 11-beta-hydroxysteroid dehydrogenase 1 (Rattus norvegicus, UniProt P16232); assay: Inhibition of N-terminal 6-His tagged full length rat 11betaHSD1 incubated for 25 mins by HTRF assay
Chain of 11-beta-hydroxysteroid dehydrogenase 1 (Rattus norvegicus, UniProt P16232) (P16232 whole entry): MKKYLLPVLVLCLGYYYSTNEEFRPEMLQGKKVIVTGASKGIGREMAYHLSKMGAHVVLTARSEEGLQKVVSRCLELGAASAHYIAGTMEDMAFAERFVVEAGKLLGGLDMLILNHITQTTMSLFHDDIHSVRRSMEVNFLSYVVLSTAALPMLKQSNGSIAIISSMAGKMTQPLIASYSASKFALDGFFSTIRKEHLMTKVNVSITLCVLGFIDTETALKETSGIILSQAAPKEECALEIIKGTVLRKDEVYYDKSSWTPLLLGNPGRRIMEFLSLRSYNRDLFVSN

[7] = molecular target: 11-beta-hydroxysteroid dehydrogenase 1 (Mus musculus, UniProt P50172); assay: Inhibition of N-terminal 6-His tagged full length mouse 11betaHSD1 incubated for 25 mins by HTRF assay
Cavia porcellus = assay: Toxicity in anesthetized guinea pig monophasic action potential model assessed as ventricular repolarization; format: organism-based, Cardiac ventricle; conditions: in vivo
L5178Y = assay: Genotoxicity in mouse L5178Y cells; format: toxicity, cell-based
[8] = molecular target: Mineralocorticoid receptor (Homo sapiens) (UniProt P08235); assay: Inhibition of mineralocorticoid receptor
Chain of Mineralocorticoid receptor (Homo sapiens) (P08235 whole entry): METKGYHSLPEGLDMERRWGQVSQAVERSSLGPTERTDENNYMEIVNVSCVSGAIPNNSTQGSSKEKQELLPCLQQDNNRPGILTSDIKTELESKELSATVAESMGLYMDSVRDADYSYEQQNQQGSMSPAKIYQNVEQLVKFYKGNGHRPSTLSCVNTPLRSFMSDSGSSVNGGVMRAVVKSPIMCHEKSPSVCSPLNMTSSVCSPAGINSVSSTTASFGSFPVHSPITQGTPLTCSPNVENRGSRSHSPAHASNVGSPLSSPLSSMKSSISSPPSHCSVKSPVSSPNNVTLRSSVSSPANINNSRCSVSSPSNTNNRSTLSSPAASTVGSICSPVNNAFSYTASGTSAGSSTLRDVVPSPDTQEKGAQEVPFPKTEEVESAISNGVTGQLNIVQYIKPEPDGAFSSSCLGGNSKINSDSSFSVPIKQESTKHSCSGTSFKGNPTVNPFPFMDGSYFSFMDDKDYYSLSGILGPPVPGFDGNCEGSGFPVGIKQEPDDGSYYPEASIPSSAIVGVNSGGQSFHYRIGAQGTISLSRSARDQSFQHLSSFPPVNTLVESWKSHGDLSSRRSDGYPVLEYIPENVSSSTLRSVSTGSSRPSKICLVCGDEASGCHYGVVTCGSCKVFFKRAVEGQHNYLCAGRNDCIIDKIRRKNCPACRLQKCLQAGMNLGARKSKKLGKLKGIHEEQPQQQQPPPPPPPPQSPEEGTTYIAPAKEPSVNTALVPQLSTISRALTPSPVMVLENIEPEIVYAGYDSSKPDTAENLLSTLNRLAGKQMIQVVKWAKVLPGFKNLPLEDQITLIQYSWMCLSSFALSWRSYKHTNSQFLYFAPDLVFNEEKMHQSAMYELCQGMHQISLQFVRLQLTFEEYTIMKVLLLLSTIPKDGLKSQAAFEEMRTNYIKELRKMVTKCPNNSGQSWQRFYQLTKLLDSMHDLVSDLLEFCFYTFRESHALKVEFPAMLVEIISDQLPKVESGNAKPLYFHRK

Salmonella typhimurium = assay: Genotoxicity in Salmonella typhimurium by Ames test; format: toxicity, organism-based; conditions: salmonella enterica subsp. enterica serovar typhimurium
[9] = molecular target: Glucocorticoid receptor (Homo sapiens) (UniProt P04150); assay: Inhibition of glucocorticoid receptor
Chain of Glucocorticoid receptor (Homo sapiens) (P04150 whole entry): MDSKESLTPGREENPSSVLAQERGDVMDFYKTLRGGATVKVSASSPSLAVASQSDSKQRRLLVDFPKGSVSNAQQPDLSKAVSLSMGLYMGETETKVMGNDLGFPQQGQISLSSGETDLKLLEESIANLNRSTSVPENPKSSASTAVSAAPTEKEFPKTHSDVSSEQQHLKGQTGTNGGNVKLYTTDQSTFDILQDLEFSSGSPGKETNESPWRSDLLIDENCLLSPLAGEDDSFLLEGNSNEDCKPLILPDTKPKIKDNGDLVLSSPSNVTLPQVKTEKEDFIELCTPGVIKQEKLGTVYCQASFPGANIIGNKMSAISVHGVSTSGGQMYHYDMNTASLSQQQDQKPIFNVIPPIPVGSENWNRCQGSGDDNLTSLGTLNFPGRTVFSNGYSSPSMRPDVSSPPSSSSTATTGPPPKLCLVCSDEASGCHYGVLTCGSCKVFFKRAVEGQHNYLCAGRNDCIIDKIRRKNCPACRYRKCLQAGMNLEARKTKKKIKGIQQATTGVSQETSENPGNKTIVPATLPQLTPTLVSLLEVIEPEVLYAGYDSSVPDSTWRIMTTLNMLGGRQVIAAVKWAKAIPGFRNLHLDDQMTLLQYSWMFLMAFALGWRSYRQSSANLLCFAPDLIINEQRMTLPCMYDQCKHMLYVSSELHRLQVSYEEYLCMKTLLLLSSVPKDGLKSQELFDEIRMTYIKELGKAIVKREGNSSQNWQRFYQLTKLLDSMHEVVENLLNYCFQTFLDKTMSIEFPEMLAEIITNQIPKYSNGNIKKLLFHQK

[10] = molecular target: 17-beta-hydroxysteroid dehydrogenase type 3 (Homo sapiens) (UniProt P37058); assay: Inhibition of 17beta-HSD3 assessed as conversion of androstenedione to testosterone at 10 uM by scintillation counting method
Chain of 17-beta-hydroxysteroid dehydrogenase type 3 (Homo sapiens) (P37058 whole entry): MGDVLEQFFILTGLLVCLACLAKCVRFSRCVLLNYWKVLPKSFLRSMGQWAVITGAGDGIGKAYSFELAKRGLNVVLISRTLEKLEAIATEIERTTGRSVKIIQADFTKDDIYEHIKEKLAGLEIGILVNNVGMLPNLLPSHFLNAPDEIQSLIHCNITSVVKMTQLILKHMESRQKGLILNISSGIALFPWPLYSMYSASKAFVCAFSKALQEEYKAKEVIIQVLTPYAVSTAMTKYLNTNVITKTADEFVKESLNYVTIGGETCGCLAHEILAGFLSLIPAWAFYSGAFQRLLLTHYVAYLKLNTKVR

[11] = molecular target: 17-beta-hydroxysteroid dehydrogenase type 1 (Homo sapiens, UniProt P14061); assay: Inhibition of 17beta-HSD1 assessed as conversion of estrone to estradiol by scintillation counting method
Chain of 17-beta-hydroxysteroid dehydrogenase type 1 (P14061 whole entry): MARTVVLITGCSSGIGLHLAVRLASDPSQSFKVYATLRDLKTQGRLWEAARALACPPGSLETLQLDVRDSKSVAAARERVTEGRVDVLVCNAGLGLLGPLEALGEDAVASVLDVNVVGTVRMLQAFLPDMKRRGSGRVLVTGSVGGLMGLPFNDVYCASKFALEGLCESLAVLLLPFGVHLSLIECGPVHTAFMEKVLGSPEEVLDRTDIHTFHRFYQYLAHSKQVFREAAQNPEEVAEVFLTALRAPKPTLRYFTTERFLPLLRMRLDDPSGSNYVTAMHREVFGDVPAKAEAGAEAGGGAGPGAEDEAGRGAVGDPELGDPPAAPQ

[12] = molecular target: 11-beta-hydroxysteroid dehydrogenase type 2 (Homo sapiens, UniProt P80365); assay: Inhibition of 11beta-HSD2 assessed as conversion of cortisol to cortisone by fluorescence based assay
[13] = Drug metabolism in bile duct cannulated rat urine assessed as oxidative metabolism level during 0 to 6 hrs post dose by metabolism-ID study; format: ADME, tissue-based; conditions: in vivo
[14] = Drug metabolism in bile duct cannulated rat bile assessed as oxidative metabolism level during 0 to 6 hrs post dose by metabolism-ID study; format: ADME; conditions: in vivo
[15] = Stability in bile duct cannulated rat urine assessed as parent compound remaining measured during 0 to 6 hrs post dose; format: ADME, tissue-based; conditions: in vivo
[16] = Stability in bile duct cannulated rat bile assessed as parent compound remaining measured during 0 to 6 hrs post dose; format: ADME; conditions: in vivo
[17] = Drug metabolism in dog hepatocytes assessed as oxidative metabolism level by metabolism-ID study; format: ADME, cell-based, Canis lupus familiaris, Hepatocyte
Hepatocyte [18] = assay: Stability in rat hepatocytes assessed as parent compound remaining; format: ADME, cell-based
[19] = Stability in dog hepatocytes assessed as parent compound remaining; format: ADME, cell-based, Canis lupus familiaris, Hepatocyte
Hepatocyte [20] = assay: Stability in human hepatocytes assessed as parent compound remaining; format: ADME, cell-based
Liver microsomes = assay: Stability in human liver microsomes assessed as oxidative metabolism-mediated generation of reactive metabolites; format: ADME, Microsome
Rattus norvegicus [21] = assay: Renal clearance in rat at 1 and 3 mg/kg relative to total clearance; format: ADME, organism-based, Kidney; set-up: dose 3 mg/kg; conditions: in vivo
Canis familiaris = assay: Renal clearance in dog at 1 and 3 mg/kg relative to total clearance; format: ADME, organism-based, Canis lupus familiaris, Kidney; set-up: dose 3 mg/kg; conditions: in vivo
[22] = Oral bioavailability in rat at 1 and 3 mg/kg; format: ADME, organism-based; conditions: in vivo
[23] = Oral bioavailability in dog at 1 and 3 mg/kg; format: ADME, organism-based, Canis lupus familiaris; conditions: in vivo
[24] = Oral bioavailability in mouse at 1 and 3 mg/kg; format: ADME, organism-based; conditions: in vivo
[25] = Half life in mouse at 1 and 3 mg/kg, po; format: ADME, organism-based; set-up: dose 3 mg/kg, route oral; conditions: in vivo
[26] = Half life in rat at 1 and 3 mg/kg, po; format: ADME, organism-based; set-up: dose 3 mg/kg, route oral; conditions: in vivo
[27] = Half life in dog at 1 and 3 mg/kg, po; format: ADME, organism-based, Canis lupus familiaris; set-up: dose 3 mg/kg, route oral; conditions: in vivo
[28] = Half life in rat at 1 and 3 mg/kg, iv; format: ADME, organism-based; set-up: dose 3 mg/kg, route intravenous; conditions: in vivo
[29] = Half life in dog at 1 and 3 mg/kg, iv; format: ADME, organism-based, Canis lupus familiaris; set-up: dose 3 mg/kg, route intravenous; conditions: in vivo
[30] = Volume of distribution at steady state in dog at 1 and 3 mg/kg; format: ADME, organism-based, Canis lupus familiaris; set-up: dose 3 mg/kg; conditions: in vivo, read-out: Vdss
[31] = Half life in mouse at 1 and 3 mg/kg, iv; format: ADME, organism-based; set-up: dose 3 mg/kg, route intravenous; conditions: in vivo
[32] = Volume of distribution at steady state in rat at 1 and 3 mg/kg; format: ADME, organism-based; set-up: dose 3 mg/kg; conditions: in vivo, read-out: Vdss
[33] = Volume of distribution at steady state in mouse at 1 and 3 mg/kg; format: ADME, organism-based; set-up: dose 3 mg/kg; conditions: in vivo, read-out: Vdss
[34] = Plasma clearance in dog at 1 and 3 mg/kg; format: ADME, organism-based, Canis lupus familiaris; set-up: dose 3 mg/kg
[35] = Plasma clearance in mouse at 1 and 3 mg/kg; format: ADME, organism-based; set-up: dose 3 mg/kg
[36] = Plasma clearance in rat at 1 and 3 mg/kg; format: ADME, organism-based; set-up: dose 3 mg/kg
[37] = Apparent permeability from basolateral to apical side in MDCK cells at 10 uM; format: ADME, cell-based, Canis lupus familiaris; conditions: dog
[38] = Percentage unbound in human plasma at 37 degC by equilibrium dialysis method; format: ADME, cell-free
[39] = Apparent permeability from apical to basolateral side in MDCK cells at 10 uM; format: ADME, cell-based, Canis lupus familiaris; conditions: dog
[40] = Percentage unbound in mouse plasma at 37 degC by equilibrium dialysis method; format: ADME, cell-free
[41] = Percentage unbound in dog plasma at 37 degC by equilibrium dialysis method; format: ADME, cell-free, Canis lupus familiaris
CYP2C9 = CYP2C9 (Homo sapiens, UniProt P11712); assay: Inhibition of CYP2C9 at 10 uM; format: ADME
Chain of CYP2C9 (P11712 whole entry): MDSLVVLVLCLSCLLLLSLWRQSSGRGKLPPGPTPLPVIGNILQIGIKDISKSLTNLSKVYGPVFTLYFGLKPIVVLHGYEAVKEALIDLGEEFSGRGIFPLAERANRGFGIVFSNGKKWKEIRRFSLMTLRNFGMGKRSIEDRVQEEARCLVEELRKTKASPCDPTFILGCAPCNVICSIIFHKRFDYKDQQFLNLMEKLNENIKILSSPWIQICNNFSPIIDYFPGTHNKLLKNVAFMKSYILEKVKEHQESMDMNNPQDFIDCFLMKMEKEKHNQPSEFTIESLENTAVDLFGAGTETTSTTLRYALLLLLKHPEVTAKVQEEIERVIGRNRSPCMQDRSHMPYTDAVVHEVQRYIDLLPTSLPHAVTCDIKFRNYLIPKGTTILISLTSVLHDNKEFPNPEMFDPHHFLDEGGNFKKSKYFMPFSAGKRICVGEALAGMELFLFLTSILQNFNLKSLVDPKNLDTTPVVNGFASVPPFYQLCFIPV

CYP2C19 = CYP2C19 (Homo sapiens, UniProt P33261); assay: Inhibition of CYP2C19 at 10 uM; format: ADME
CYP2D6 = CYP2D6 (Homo sapiens, UniProt P10635); assay: Inhibition of CYP2D6 at 10 uM; format: ADME
Chain of CYP2D6 (P10635 whole entry): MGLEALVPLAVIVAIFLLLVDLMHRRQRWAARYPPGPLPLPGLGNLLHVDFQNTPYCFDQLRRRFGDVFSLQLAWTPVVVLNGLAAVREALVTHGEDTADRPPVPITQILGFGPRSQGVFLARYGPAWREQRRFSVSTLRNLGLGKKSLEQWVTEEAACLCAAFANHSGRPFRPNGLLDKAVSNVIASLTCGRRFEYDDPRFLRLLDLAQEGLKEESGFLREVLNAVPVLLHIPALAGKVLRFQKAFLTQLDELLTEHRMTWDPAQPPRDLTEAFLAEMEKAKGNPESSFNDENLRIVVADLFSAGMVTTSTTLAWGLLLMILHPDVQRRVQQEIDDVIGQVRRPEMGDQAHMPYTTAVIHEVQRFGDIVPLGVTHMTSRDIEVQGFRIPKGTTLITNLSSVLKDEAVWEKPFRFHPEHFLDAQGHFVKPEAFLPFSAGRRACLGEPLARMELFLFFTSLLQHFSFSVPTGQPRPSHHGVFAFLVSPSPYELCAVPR

CYP1A2 = CYP1A2 (Homo sapiens, UniProt P05177); assay: Inhibition of CYP1A2 at 10 uM; format: ADME
Chain of CYP1A2 (P05177 whole entry): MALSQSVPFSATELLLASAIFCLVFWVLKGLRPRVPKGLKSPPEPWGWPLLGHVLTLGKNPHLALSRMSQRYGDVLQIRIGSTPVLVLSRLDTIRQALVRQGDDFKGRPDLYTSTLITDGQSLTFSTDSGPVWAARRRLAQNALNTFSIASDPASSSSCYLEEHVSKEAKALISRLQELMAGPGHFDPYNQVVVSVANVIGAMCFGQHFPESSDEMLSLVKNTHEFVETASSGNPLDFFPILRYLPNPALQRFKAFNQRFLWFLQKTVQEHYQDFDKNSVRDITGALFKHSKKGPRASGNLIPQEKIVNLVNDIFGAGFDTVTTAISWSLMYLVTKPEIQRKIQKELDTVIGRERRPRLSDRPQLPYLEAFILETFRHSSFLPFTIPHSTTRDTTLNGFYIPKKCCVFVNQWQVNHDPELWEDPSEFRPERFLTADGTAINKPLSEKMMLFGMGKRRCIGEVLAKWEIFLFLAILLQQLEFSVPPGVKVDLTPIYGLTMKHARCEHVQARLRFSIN

[42] = Oral bioavailability in rat; format: ADME, organism-based; conditions: in vivo
CYP3A4 = CYP3A4 (Homo sapiens, UniProt P08684); assay: Inhibition of CYP3A4 at 10 uM; format: ADME
Chain of CYP3A4 (P08684 whole entry): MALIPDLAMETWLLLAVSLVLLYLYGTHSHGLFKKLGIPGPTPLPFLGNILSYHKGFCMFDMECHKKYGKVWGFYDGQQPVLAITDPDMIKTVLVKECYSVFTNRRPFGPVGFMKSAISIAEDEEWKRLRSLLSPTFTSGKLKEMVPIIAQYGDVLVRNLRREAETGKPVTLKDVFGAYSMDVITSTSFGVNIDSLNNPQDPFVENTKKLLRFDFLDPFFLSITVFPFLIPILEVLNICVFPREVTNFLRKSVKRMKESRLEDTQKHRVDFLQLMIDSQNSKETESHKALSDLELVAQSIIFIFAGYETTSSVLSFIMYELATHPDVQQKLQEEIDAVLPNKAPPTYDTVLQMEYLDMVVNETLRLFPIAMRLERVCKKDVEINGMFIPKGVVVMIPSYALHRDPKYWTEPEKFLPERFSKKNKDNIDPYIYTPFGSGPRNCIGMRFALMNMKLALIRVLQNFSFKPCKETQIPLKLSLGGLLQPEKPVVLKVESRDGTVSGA

[43] = Aqueous solubility in pH 7.4 phosphate buffer at 25 degC incubated for 24 hrs; format: physicochemical
[44] = Intrinsic clearance in rat hepatocytes assessed per 10^6 cells
[45] = Percentage unbound in rat plasma at 37 degC by equilibrium dialysis method; format: ADME, cell-free
[46] = Lipophilicity, log D at pH 7.4 by shake flask method; conditions: buffer
[47] = molecular target: T1, 11-beta-hydroxysteroid dehydrogenase 1
Description: Inhibition of N-terminal 6-His tagged full length human 11betaHSD1 incubated for 25 mins by HTRF assay

in vivo = conditions: rat

For `CC(C)(C)c1c(C(=O)NC2C3CC4CC(C3)CC2C4)cnn1-c1ccc(C(=O)O)cc1` (stereo not drawn), the inhibition (Rattus norvegicus [1]) was “Active”, the inhibition in vivo at 3 mg/kg (Rattus norvegicus [2]) was 50% and the pIC50 [3] was 8.70. It also gave a pIC50 [4] of 7.62, a pIC50 [5] of 8.10 and a pIC50 [6] of 7.07. The pIC50 [7] was 5.21, the Activity (Cavia porcellus) was “Non-toxic” and the Activity (L5178Y) was “Non-toxic”. For the same molecule, the inhibition [8] was “inactive”, the Activity (Salmonella typhimurium) was “Non-toxic” and the inhibition [9] was “inactive”. The inhibition [10] was less than 5%, the pIC50 [11] was less than 4.52 and the pIC50 [12] was less than 4.52. For the same molecule, the Drug metabolism [13] was 0.2%, the Drug metabolism [14] was 80.1% and the Stability [15] was 99.4%. The Stability [16] was 10.8%, the Drug metabolism [17] was 5.8% and the Stability (Hepatocyte [18]) was 96%. For the same molecule, the Stability [19] was 93.7%, the Stability (Hepatocyte [20]) was 95% and the Stability (Liver microsomes) was “Stable”. For the same molecule, the CL (Rattus norvegicus [21]) was less than 1%, the CL (Canis familiaris) was less than 5% and the bioavailability [22] was 95%. The bioavailability [23] was 45%, the bioavailability [24] was 100% and the half-life [25] was 2.2 h. It also gave a half-life [26] of 4.9 h, a half-life [27] of 5.1 h and a half-life [28] of 5.8 h. It also gave a half-life [29] of 5.5 h, a Vd [30] of 0.1 L/kg and a half-life [31] of 0.8 h. For the same molecule, the Vd [32] was 0.3 L/kg, the Vd [33] was 0.4 L/kg and the clearance [34] was 0.3 mL/min/kg. It also gave a clearance [35] of 9 mL/min/kg, a clearance [36] of 0.6 mL/min/kg and a Papp B→A at 10 µM [37] of 3.9 ×10⁻⁶ cm/s. For the same molecule, the fraction unbound [38] was 0.014, the Papp A→B at 10 µM [39] was 7.3 ×10⁻⁶ cm/s and the fraction unbound [40] was 0.035. For the same molecule, the fraction unbound [41] was 0.02, the inhibition at 10 µM (CYP2C9) was less than 25% and the inhibition at 10 µM (CYP2C19) was less than 25%. It also gave an inhibition at 10 µM (CYP2D6) of less than 25%, an inhibition at 10 µM (CYP1A2) of less than 25% and a bioavailability [42] of 95%. The inhibition at 10 µM (CYP3A4) was less than 25%, the solubility at 24 h [43] was greater than 1900 µM and the hepatocyte CLint [44] was less than 2 µL/min/1e6 cells. The fraction unbound [45] was 0.013, the logD [46] was 1 and the pIC50 [47] was 8.05. The clearance (in vivo) was 0.6 mL/min/kg.
